According to patent US20230078089A1, “Regulating Activation of Fibroblasts to Prevent Fibrosis” (THE J. DAVID GLADSTONE INSTITUTES, A TESTAMENTARY TRUST …, priority 2020, published 2023):

How the values were obtained:
isolated adult CMs = assay: bulk RNA-Seq of isolated adult cardiomyocytes from TAC mice; assay type: in vivo, mouse
Protocol: Cell isolation from mouse hearts was performed as described by Li et al. (J. Vis. Exp. (2014)) with modifications. Briefly, after proper anesthesia level was reached, thoracotomy was performed, and mouse heart was isolated. The isolated heart was cannulated and perfused with perfusion buffer (120.4 mM NaCl, 14.7 mM KCl, 0.6 mM KH2PO4, 0.6 mM Na2HPO4, 1.2 mM MgSO4, 10 mM Na-HEPES, 4.6 mM NaHCO3, 30 mM taurine, 10 mM 2,3-butanedione monoxime, and 5.5 mM glucose, pH 7.0) in a Langendorff perfusion system (Radnoti 120108EZ) for 5-10 minutes at 37° C. The cannulated heart was then digested by digestion buffer (perfusion buffer with 300 units/mL collagenase II (Worthington Biochemical) and 50 μM CaCl2)) for about 10 min at 37° C. […] 30 k cells were counted with trypan blue using a hemocytometer and then used for subsequent 10× Genomics Chromium single cell RNAseq preparation. […] Nuclei were then counted with DAPI using a hemocytometer and finally 30 k non-CM nuclei used for subsequent 10× Genomics Chromium single cell ATACseq preparation. […]
Total RNA from CMs was extracted using miRNeasy kit (Qiagen) according to the manufacturer's instructions and quantified with Nanodrop (Thermo scientific). […] Reads were mapped to the mm10 reference mouse genome using STAR (v 2.7.3a) and assigned to Ensembl genes. […]

[1] = tested on: non-CM compartment of mouse hearts; assay: single cell RNA sequencing of non-CM heart cells from TAC mice; assay type: in vivo
Protocol: (§1) Cell isolation from mouse hearts was performed as described by Li et al. (J. Vis. Exp. (2014)) with modifications. Briefly, after proper anesthesia level was reached, thoracotomy was performed, and mouse heart was isolated. The isolated heart was cannulated and perfused with perfusion buffer (120.4 mM NaCl, 14.7 mM KCl, 0.6 mM KH2PO4, 0.6 mM Na2HPO4, 1.2 mM MgSO4, 10 mM Na-HEPES, 4.6 mM NaHCO3, 30 mM taurine, 10 mM 2,3-butanedione monoxime, and 5.5 mM glucose, pH 7.0) in a Langendorff perfusion system (Radnoti 120108EZ) for 5-10 minutes at 37° C. The cannulated heart was then digested by digestion buffer (perfusion buffer with 300 units/mL collagenase II (Worthington Biochemical) and 50 μM CaCl2)) for about 10 min at 37° C. At the end of digestion, the atria and great vessels were removed, and the ventricular tissue was transferred to and gently teased into small pieces in stop buffer (perfusion buffer with 10% fetal bovine serum) at 37° C. After gently pipetting, cell suspension was passed through a 250 uM strainer in a falcon tube and then at 30×g for 3 minutes at room temperature (RT). Then, the supernatant—containing most of the non-cardiomyocytes (CMs)—was divided from the pellet (containing the CM fraction). The non-CM fraction was centrifuged again at 30×g for 3 minutes at RT and the supernatant kept. The supernatant was then filtered with a cell strainer (70 um) and finally centrifuged at 400×g for 3 minutes at RT for eliminating debris. The non-CM pellet was finally resuspended in 1 mL cold PBS 0.5% BSA. 30 k cells were counted with trypan blue using a hemocytometer and then used for subsequent 10× Genomics Chromium single cell RNAseq preparation. For single cell ATAC, 500 k isolated and purified non-CMs were resuspended in […] lysis buffer (Tris-HCl 10 mM pH 7.4, NaCl 10 mM, MgCl2 3 mM, Tween-20 0.1%, P40 0.1%, Digitonin 0.01%, BSA 1% in Nuclease-free water), pipetted 10 times and kept on ice for 5 minutes. Nuclei were then washed 1 mL 1× PBS with 1% BSA and then […] at 4° C. The nuclei pellet was resuspended in 1 mL 1× PBS with 1% BSA and filtered with a 10 uM strainer (pluriSelect #43-50010-00). Nuclei were then counted with DAPI using a hemocytometer and finally 30 k non-CM nuclei used for subsequent 10× Genomics Chromium single cell ATACseq preparation. The CM-fraction was, after the first centrifugation, centrifugated again at 30×g for 3 minutes at RT in stopping buffer and the supernatant was discarded. The CM pellet was finally centrifuged at 400×g for 3 minutes in stopping buffer at RT and after discarding the supernatant, the cell pellet was lysed in Qiazol (miRNeasy kit—Qiagen) for subsequent RNA extraction.
Single-cell droplet libraries from the non-CM cell suspension (2× Sham, 2× TAC-Veh, 2× TAC-JQ1 and 2× TAC-JQ1 withdrawn) (FIG. 2C) were generated in the 10× Genomics Chromium controller according to the manufacturer's instructions in the Chromium Single Cell 3′ Reagent Kit v.2 User Guide. Additional components used for library preparation include the Chromium Single Cell 3′ Library and Gel Bead Kit v.2 (PN-120237) and the Chromium Single Cell 3′ Chip kit v.2 (PN-120236). Libraries were prepared according to the manufacturer's instructions using the Chromium Single Cell 3′ Library and Gel Bead Kit v.2(PN-120237) and Chromium 7 Multiplex Kit (PN-120262). Final libraries were sequenced on the NextSeq 500 (Illumina) for a quality control run and then on the NovaSeq (Illumina) for deeper sequencing. All the 8 samples were pooled and sequenced in one single lane. Sequencing parameters were selected according to the Chromium Single Cell v.2 specifications. All libraries were sequenced to a mean read depth of at least 50,000 total aligned reads per cell. Raw sequencing reads were processed using the Cell Ranger v.2.2.0 pipeline from 10× Genomics. […]

[2] = tested on: distal elements (incl. Meox1 enhancer) in fibroblasts, myeloid and endothelial cells; assay: single cell ATAC sequencing of non-CM heart nuclei from TAC mice, chromatin accessibility of distal elements; assay type: in vivo, mouse
Protocol: as §1
After successful nuclei isolation, nuclei were then processed according to the 10× Genomics Single Cell ATAC kit v1.0 (PN-1000110) by first incubating with Tn5 Transposase for 1 hour, followed by GEM generation and barcode amplification using the 10× Genomics Chromium controller according to the manufacturer's instructions. Additional components used for library preparation include the Chromium Chip E Single Cell ATAC kit (PN-1000082) and Chromium i7 Multiplex Kit N, Set A primers (PN-1000084). Final libraries were sequenced on the NextSeq 500 (Illumina) for a quality control run and then on the NovaSeq (Illumina) for deeper sequencing. All the 8 samples (2× Sham, 2× TAC-Veh, 2× TAC-JQ1 and 2× TAC-JQ1 withdrawn) (FIG. 2C) were pooled and sequenced in one NovaSeq single lane. Sequencing parameters were selected according to the Chromium Single Cell ATAC v1.0 specifications. All libraries were sequenced to a median read depth of at least 2,500 fragments/nuclei. Raw sequencing reads were processed using the Cell Ranger ATAC v1.0 pipeline from 10× Genomics. In brief, reads were demultiplexed and aligned to the mouse mm10 genome. As a test of sample quality, a minimum of 70% of fragments overlapped targeted regions as defined by CellRanger. […]

Meox1 expression = Meox1 expression by qPCR in TGF-β-treated cultured cardiac fibroblasts; assay type: cell-based, mouse; settings: TGF-β1 10 ng/ml, JQ1 500 nM
Protocol: JQ1 was synthesized and purified in the laboratory of Jun Qi (Dana-Farber Cancer Institute), as described by Filippakopoulos et al. (Nature 468, 1067-1073 (2010)). For in vivo experiments, a stock solution [50 mg/ml JQ1 in dimethyl sulfoxide (DMSO)] was diluted to a working concentration of 5 mg/ml in an aqueous carrier (10% hydroxypropyl b-cyclodextrin; Sigma C0926) using vigorous vortexing. Mice were injected at a dose of 50 mg/kg given intraperitoneally once daily. Vehicle control was an equal amount of DMSO dissolved in 10% hydroxypropyl b-cyclodextrin carrier solution. All solutions were prepared and administered using sterile technique. For in vitro experiments, JQ1 was dissolved in DMSO and administered to cells at 500 nM final concentration using an equal volume of DMSO as control.
A Tcf21MCM mouse (Acharya et al., Genesis 49, 870-877 (2011)) was crossed with a Rosa26-Ai6 mouse (Jackson Laboratory stock #007906) to generate a Tcf21^MCM/+; Rosa26^Ai6/+ mouse. At 10 weeks of age, intraperitoneal injection of Tamoxifen (75 mg tamoxifen/kg) was done for 5 days (once a day). […] As primary cells only undergo a pre-determined and finite number of cell divisions in culture, and then enter a state of replicative senescence, the inventors employed a widely used method for immortalizing mammalian cells in culture based on Simian virus 40 (SV40) T antigen expression. […]
Quantitative RT-PCR. […]

[3] = tested on: MEOX1 expression in human fibroblasts from lung; assay: MEOX1 expression by qPCR in TGFβ-treated human lung fibroblasts; assay type: cell-based; settings: TGF-β1 10 ng/ml, JQ1 0.5 uM
Protocol: (§2) Human fibroblasts from lung (ATCC, #CRL-4058), liver (CELL APPLICATIONS INC, #712-05f) and kidney (Cell Biologics, #H-6016) were passaged and grown like the mouse cardiac fibroblasts (see “Generation of cardiac fibroblast immortalized cell line, culture condition and TGFβ stimulation” section for more details”). In brief, human fibroblasts were seeded at 1×10^5/well of 6 well plate at day 1. On day 2, the media was changed to the same basal media with 0.5% FBS. On the day 3, TGF-β1 (Peprotech #100-21C) was added into the media at a concentration of 10 ng/ml. JQ1 was added at a final concentration of 0.5 uM. Cells were collected on day 5 for RT-qPCR and gene expression analysis.

[4] = tested on: MEOX1 expression in human fibroblasts from liver; assay: MEOX1 expression by qPCR in TGFβ-treated human liver fibroblasts; assay type: cell-based; settings: TGF-β1 10 ng/ml, JQ1 0.5 uM
Protocol: as §2

[5] = tested on: MEOX1 expression in human fibroblasts from kidney; assay: MEOX1 expression by qPCR in TGFβ-treated human kidney fibroblasts; assay type: cell-based; settings: TGF-β1 10 ng/ml, JQ1 0.5 uM
Protocol: as §2

[6] = tested on: BET family of bromodomain proteins; settings: background description; cited from earlier work
[7] = tested on: several rodent models of HF; settings: background description; cited from earlier work

Q: For `Cc1sc2c(c1C)C(c1ccc(Cl)cc1)=NC(CC(=O)OC(C)(C)C)c1nnc(C)n1-2` (centres unmarked) [JQ1], which “overlap of CM transcriptome effects with transcriptomic signature of whole LV tissue” value (isolated adult CMs) is on record?
A: The value was less than 3%.

Q: And the “effects on the transcriptome of isolated adult CMs” value (isolated adult CMs; compared to published signature of whole LV tissue)?
A: Its value is “modest”.

Q: What about the “fibroblast cell state (scRNAseq clustering)” value ([1]; TAC JQ1-treated) of the same molecule?
A: Its value is “dramatic reversion of this cell state to one that closely approached the Sham state”.

Q: What about the “myofibroblast cell state (Postn marker)” value ([1]; TAC JQ1-treated) of the same molecule?
A: The value was “shifted the myoFB cell state back toward a Sham-like state”.

Q: And the “Meox1 expression in MyoFBs (scRNAseq) after withdrawal” value ([1]; TAC JQ1 withdrawn)?
A: Its value is “robust re-induction”.

Q: What about the “fibroblast cell state (scRNAseq clustering) after withdrawal” value ([1]; TAC JQ1 withdrawn) of the same molecule?
A: The value was “shift of the FB population back to a TAC-like stressed state”.

Q: And the “myofibroblast cell state (Postn marker) after withdrawal” value ([1]; TAC JQ1 withdrawn)?
A: The value was “reverts these cells back to myoFBs”.

Q: What about the “Meox1 expression in MyoFBs (scRNAseq)” value ([1]; TAC, BET inhibition with JQ1) of the same molecule?
A: Its value is “abolished”.

Q: And the “transcriptome of endothelial and myeloid compartments” value ([1]; TAC, JQ1 exposure)?
A: The value was “dynamic transcriptomic shifts”.

Q: And the “accessibility of fibroblast regions that opened from Sham to TAC (Cluster 9)” value ([2]; fibroblasts)?
A: Its value is “insensitive”.

Q: And the “sensitivity of the enhancer downstream of Meox1 to stress and JQ1 exposure” value ([2]; fibroblasts, but not myeloid and endothelial cells)?
A: Its value is “extremely sensitive”.

Q: What about the “accessibility of the 10 peaks of the Meox1 enhancer” value ([2]; fibroblasts, JQ1 treatment) of the same molecule?
A: The value was “closed with JQ1 treatment back to a Sham level”.

Q: What about the “increase in chromatin accessibility after TAC in fibroblasts” value ([2]; fibroblasts, JQ1 treatment) of the same molecule?
A: Its value is “reversibly attenuated”.

Q: And the “accessibility of dynamic fibroblast distal elements (Cluster 2) after withdrawal” value ([2]; fibroblasts, JQ1 withdrawal)?
A: The value was “robustly re-accessible”.

Q: And the “accessibility of the 10 peaks of the Meox1 enhancer after withdrawal” value ([2]; fibroblasts, JQ1 withdrawn)?
A: Its value is “re-opened”.

Q: What about the “accessibility of dynamic fibroblast distal elements (Cluster 2)” value ([2]; fibroblasts, closed in Sham, opened in TAC, JQ1 treatment) of the same molecule?
A: Its value is “closed by JQ1”.

Q: And the “attenuation of chromatin accessibility after TAC in myeloid and endothelial cells” value ([2]; myeloid and endothelial cells, JQ1 treatment)?
A: Its value is “less evident”.

Q: What about the “TGF-β-induced Meox1 upregulation” value (Meox1 expression) of the same molecule?
A: The value was “suppressed”.

Q: And the “TGFβ-induced MEOX1 expression” value [3]?
A: Its value is “suppressed”.

Q: And the “TGFβ-induced MEOX1 expression” value [4]?
A: The value was “suppressed”.

Q: And the “TGFβ-induced MEOX1 expression” value [5]?
A: The value was “suppressed”.

Q: What about the “potency as BET bromodomain inhibitor” value [6] of the same molecule?
A: The value was “potent inhibitor”.

Q: And the “prevention and treatment of heart failure” value [7]?
A: Its value is “can prevent and treat HF”.
